pIC50: −log10 of the molar value.
Experiments:
[1] = system: cGAS/STING pathway in THP1 cells; test: THP1 cell-based cGAS/STING pathway activity assay (IRF-3-linked luciferase reporter); conditions: Homo sapiens, THP-1
Outline: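 THP1 cells carrying an IRF-3-driven luciferase reporter were read across a range of compound concentrations, and IC50 values were derived from these concentration responses; the assay upper limit was 100 μM.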

[2] = target: Human cGAS amino acids 155-522 (Homo sapiens (Human), UniProt Q8N884); test: cGAS biochemical activity assay (ATP remaining, Kinase-Glo Max luminescence); conditions: human cGAS 155-522, ATP remaining (Kinase-Glo Max); read-out: cGAS IC50
Sequence of Human cGAS amino acids 155-522 (Q8N884 157-522): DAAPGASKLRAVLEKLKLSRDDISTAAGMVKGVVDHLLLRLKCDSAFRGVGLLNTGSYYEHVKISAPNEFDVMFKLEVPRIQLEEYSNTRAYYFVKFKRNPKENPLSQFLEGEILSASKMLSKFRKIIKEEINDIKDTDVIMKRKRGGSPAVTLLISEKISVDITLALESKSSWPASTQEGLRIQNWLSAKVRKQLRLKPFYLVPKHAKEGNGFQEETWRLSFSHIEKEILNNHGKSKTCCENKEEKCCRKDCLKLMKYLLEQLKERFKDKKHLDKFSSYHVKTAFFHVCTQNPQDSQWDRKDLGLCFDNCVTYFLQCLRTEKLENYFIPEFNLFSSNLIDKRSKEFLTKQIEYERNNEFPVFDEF

Compound | pIC50 [1] | pIC50 [2]
Cc1[nH]c2c(-c3ccccc3)c(C(F)(F)F)nn2c(=O)c1-c1nnc(NC(=N)N)o1 [Compound D1077, 1-(5-(5-methyl-7-oxo-3-phenyl-2-(trifluoromethyl)-4,7-dihydropyrazolo[1,5-a]pyrimidin-6-yl)-1,3,4-oxadiazol-2-yl)guanidine] | < 4.00 | > 4.70
COc1cccc2oc(-c3c(C[S+](C)[O-])[nH]c4c(-c5ccccc5)c(C(F)(F)F)nn4c3=O)nc12 (centres unmarked) [Compound C1137, 6-(4-methoxybenzo[d]oxazol-2-yl)-5-((methylsulfinyl)methyl)-3-phenyl-2-(trifluoromethyl)pyrazolo[1,5-a]pyrimidin-7(4H)-one] | < 4.00 | > 4.70
COc1c(Cl)ccc2oc(-c3c(C)[nH]c4c(-c5ccccc5)c(C(F)(F)F)nn4c3=O)nc12 [Compound C1095, 6-(5-chloro-4-methoxybenzo[d]oxazol-2-yl)-5-methyl-3-phenyl-2-(trifluoromethyl)pyrazolo[1,5-a]pyrimidin-7(4H)-one] | < 4.00 | > 4.70
Cc1[nH]c2c(-c3ccccc3)c(C(F)(F)F)nn2c(=O)c1-c1nnc(N2CCCC2)o1 [Compound D1014, 5-methyl-3-phenyl-6-(5-(pyrrolidin-1-yl)-1,3,4-oxadiazol-2-yl)-2-(trifluoromethyl)pyrazolo[1,5-a]pyrimidin-7(4H)-one] | < 4.00 | > 4.70
CCCS(=O)(=O)NC(=O)c1c(C)[nH]c2c(-c3ccccc3)c(C(F)(F)F)nn2c1=O [Compound A1111, 5-methyl-7-oxo-3-phenyl-N-(propylsulfonyl)-2-(trifluoromethyl)-4,7-dihydropyrazolo[1,5-a]pyrimidine-6-carboxamide] | < 4.00 | > 4.70
Cc1[nH]c2c(-c3ccccc3)c(C(F)(F)F)nn2c(=O)c1-c1nnc(C2(C)CCCOC2)o1 (centres unmarked) [Compound D1051, 5-methyl-6-(5-(3-methyltetrahydro-2H-pyran-3-yl)-1,3,4-oxadiazol-2-yl)-3-phenyl-2-(trifluoromethyl)pyrazolo[1,5-a]pyrimidin-7(4H)-one] | < 4.00 | 3.60 to 4.70
COc1cccc2oc(-c3c(N)[nH]c4c(-c5ccccc5)c(C(F)(F)F)nn4c3=O)nc12 [Compound C1085, 5-amino-6-(4-methoxybenzo[d]oxazol-2-yl)-3-phenyl-2-(trifluoromethyl)pyrazolo[1,5-a]pyrimidin-7(4H)-one] | < 4.00 | > 4.70
COc1cccc2oc(-c3c(Cn4ccnc4)[nH]c4c(-c5ccccc5)c(C(F)(F)F)nn4c3=O)nc12 [Compound C1180, 5-((1H-imidazol-1-yl)methyl)-6-(4-methoxybenzo[d]oxazol-2-yl)-3-phenyl-2-(trifluoromethyl)pyrazolo[1,5-a]pyrimidin-7(4H)-one] | < 4.00 | > 4.70
COc1cccc2oc(-c3c(C(=O)NCC(O)C(F)(F)F)[nH]c4c(-c5ccccc5)c(C(F)(F)F)nn4c3=O)nc12 (centres unmarked) [Compound C1209, 6-(4-methoxybenzo[d]oxazol-2-yl)-7-oxo-3-phenyl-N-(3,3,3-trifluoro-2-hydroxypropyl)-2-(trifluoromethyl)-4,7-dihydropyrazolo[1,5-a]pyrimidine-5-carboxamide] | < 4.00 | > 4.70
Cc1[nH]c2c(-c3ccccc3)c(C#N)nn2c(=O)c1-c1nc2ccc(N)c(Cl)c2o1 [Compound C1271, 6-(6-amino-7-chlorobenzo[d]oxazol-2-yl)-5-methyl-7-oxo-3-phenyl-4,7-dihydropyrazolo[1,5-a]pyrimidine-2-carbonitrile] | < 4.00 | > 4.70
COc1cccc2oc(-c3c(C(=O)Nc4ccn(C)n4)[nH]c4c(-c5ccccc5)c(C(F)(F)F)nn4c3=O)nc12 [Compound C1256, 6-(4-methoxybenzo[d]oxazol-2-yl)-N-(1-methyl-1H-pyrazol-3-yl)-7-oxo-3-phenyl-2-(trifluoromethyl)-4,7-dihydropyrazolo[1,5-a]pyrimidine-5-carboxamide] | < 4.00 | > 4.70
Cc1[nH]c2c(-c3ccccc3)c(C#N)nn2c(=O)c1-c1nc2ccc(N)cc2o1 [Compound C1193, 6-(6-aminobenzo[d]oxazol-2-yl)-5-methyl-7-oxo-3-phenyl-4,7-dihydropyrazolo[1,5-a]pyrimidine-2-carbonitrile] | < 4.00 | > 4.70
COc1nc(N)cc2oc(-c3c(C)[nH]c4c(-c5ccccc5)c(C#N)nn4c3=O)nc12 [Compound C1218, 6-(6-amino-4-methoxyoxazolo[4,5-c]pyridin-2-yl)-5-methyl-7-oxo-3-phenyl-4,7-dihydropyrazolo[1,5-a]pyrimidine-2-carbonitrile] | < 4.00 | > 4.70

More lines, now with the values ahead:

pIC50 [1] | pIC50 [2] | Compound
4.00 to 4.70 | > 4.70 | Cc1[nH]c2c(-c3ccccc3)c(C(F)(F)F)nn2c(=O)c1-c1nc2c(=O)n(C)ccc2o1 [Compound C1106, 5-methyl-2-(5-methyl-7-oxo-3-phenyl-2-(trifluoromethyl)-4,7-dihydropyrazolo[1,5-a]pyrimidin-6-yl)oxazolo[4,5-c]pyridin-4(5H)-one]
< 4.00 | 3.60 to 4.70 | COc1cc(C#N)cc2oc(-c3c(C)[nH]c4c(-c5ccccc5)c(C(F)(F)F)nn4c3=O)nc12 [Compound C1112, 4-methoxy-2-(5-methyl-7-oxo-3-phenyl-2-(trifluoromethyl)-4,7-dihydropyrazolo[1,5-a]pyrimidin-6-yl)benzo[d]oxazole-6-carbonitrile]
< 4.00 | > 4.70 | Cc1[nH]c2c(-c3ccccc3)c(C(F)(F)F)nn2c(=O)c1-c1nc2c(C#N)cccc2o1 [Compound C1075, 2-(5-methyl-7-oxo-3-phenyl-2-(trifluoromethyl)-4,7-dihydropyrazolo[1,5-a]pyrimidin-6-yl)benzo[d]oxazole-4-carbonitrile]
> 4.70 | > 4.70 | CCc1[nH]c2c(-c3ccccc3)c(C(F)(F)F)nn2c(=O)c1-c1nc2c(OC)cccc2o1 [Compound C1183, 5-ethyl-6-(4-methoxybenzo[d]oxazol-2-yl)-3-phenyl-2-(trifluoromethyl)pyrazolo[1,5-a]pyrimidin-7(4H)-one]
< 4.00 | > 4.70 | COc1cc(NC(=O)c2c(C)[nH]c3c(-c4ccccc4)c(C(F)(F)F)nn3c2=O)cc(OC)c1 [Compound A1067, N-(3,5-dimethoxyphenyl)-5-methyl-7-oxo-3-phenyl-2-(trifluoromethyl)-4,7-dihydropyrazolo[1,5-a]pyrimidine-6-carboxamide]
< 4.00 | > 4.70 | Cc1[nH]c2c(-c3ccccc3)c(C(F)(F)F)nn2c(=O)c1-c1nnc(C2CCOCC2)o1 [Compound D1016, 5-methyl-3-phenyl-6-(5-(tetrahydro-2H-pyran-4-yl)-1,3,4-oxadiazol-2-yl)-2-(trifluoromethyl)pyrazolo[1,5-a]pyrimidin-7(4H)-one]
4.00 to 4.70 | 3.60 to 4.70 | COCc1ccccc1NC(=O)c1c(C)[nH]c2c(-c3ccccc3)c(C(F)(F)F)nn2c1=O [Compound A1072, N-(2-(methoxymethyl)phenyl)-5-methyl-7-oxo-3-phenyl-2-(trifluoromethyl)-4,7-dihydropyrazolo[1,5-a]pyrimidine-6-carboxamide]
4.00 to 4.70 | > 4.70 | Cc1[nH]c2c(-c3ccccc3)c(C(F)(F)F)nn2c(=O)c1C(=O)Nc1cccnc1S(C)(=O)=O [Compound A1096, 5-methyl-N-(2-(methylsulfonyl)pyridin-3-yl)-7-oxo-3-phenyl-2-(trifluoromethyl)-4,7-dihydropyrazolo[1,5-a]pyrimidine-6-carboxamide]
4.00 to 4.70 | > 4.70 | COc1cccnc1NC(=O)c1c(C)[nH]c2c(-c3ccccc3)c(C(F)(F)F)nn2c1=O [Compound A1100, N-(3-methoxypyridin-2-yl)-5-methyl-7-oxo-3-phenyl-2-(trifluoromethyl)-4,7-dihydropyrazolo[1,5-a]pyrimidine-6-carboxamide]
4.00 to 4.70 | > 4.70 | Cc1[nH]c2c(-c3ccccc3)c(C(F)(F)F)nn2c(=O)c1C1=N[C@@H](C(=O)O)[C@H](C)O1 [Compound C1213, (4R,5S)-5-methyl-2-(5-methyl-7-oxo-3-phenyl-2-(trifluoromethyl)-4,7-dihydropyrazolo[1,5-a]pyrimidin-6-yl)-4,5-dihydrooxazole-4-carboxylic acid]
4.00 to 4.70 | > 4.70 | Cc1[nH]c2c(-c3ccccc3)c(C(F)(F)F)nn2c(=O)c1C(=O)Nc1cccc(S(C)(=O)=O)c1 [Compound A1084, 5-methyl-N-(3-(methylsulfonyl)phenyl)-7-oxo-3-phenyl-2-(trifluoromethyl)-4,7-dihydropyrazolo[1,5-a]pyrimidine-6-carboxamide]
> 4.70 | > 4.70 | COc1cccc(NC(=O)c2c(C)[nH]c3c(-c4ccccc4)c(C(F)(F)F)nn3c2=O)c1 [Compound A1032, N-(3-methoxyphenyl)-5-methyl-7-oxo-3-phenyl-2-(trifluoromethyl)-4,7-dihydropyrazolo[1,5-a]pyrimidine-6-carboxamide]
4.00 to 4.70 | 3.60 to 4.70 | Cc1[nH]c2c(-c3ccccc3)c(C(F)(F)F)nn2c(=O)c1C(=O)NCc1ccccc1 [Compound A1023, N-benzyl-5-methyl-7-oxo-3-phenyl-2-(trifluoromethyl)-4,7-dihydropyrazolo[1,5-a]pyrimidine-6-carboxamide]
4.00 to 4.70 | > 4.70 | COc1cc(C(=O)O)cc2oc(-c3c(C)[nH]c4c(-c5ccccc5)c(C(F)(F)F)nn4c3=O)nc12 [Compound C1155, 4-methoxy-2-(5-methyl-7-oxo-3-phenyl-2-(trifluoromethyl)-4,7-dihydropyrazolo[1,5-a]pyrimidin-6-yl)benzo[d]oxazole-6-carboxylic acid]
4.00 to 4.70 | > 4.70 | COc1cccc2oc(-c3c(-c4conc4C)[nH]c4c(-c5ccccc5)c(C(F)(F)F)nn4c3=O)nc12 [Compound C1253, 6-(4-methoxybenzo[d]oxazol-2-yl)-5-(3-methylisoxazol-4-yl)-3-phenyl-2-(trifluoromethyl)pyrazolo[1,5-a]pyrimidin-7(4H)-one]

Reference: patent publication US10738056B2 (Aduro BioTech, Inc., priority 2017, dated 2020)
